Assay results published in paper PMC9179882 (Cancers, 2022).

Columns and labels:
[1] = system: SW620 cells; assay: Resazurin cytotoxic assay, metastatic SW620; type: cell-based, human; settings: Homo sapiens, SW-620, 48 h, mean ± SD
Method: (§1) CRL1790, SW480 and SW620 cell lines were purchased from American Type Culture Collection (ATCC). Cells were cultured at 37 °C with 5% CO2 atmosphere in medium supplemented with 10% fetal bovine serum (10270106, Gibco, Waltham, MA, USA), 10 mg/mL penicillin, 10 mg/mL streptomycin, […] amphotericin, and 0.03% L-Glutamine as recommended by the ATCC. MEM medium (M5650, Merck, Darmstadt, Germany) was used for non-tumoral CRL1790, and RPMI 1640 medium (L0501-500, Biowest, Nuaillé, France) was used for both tumoral SW480 and SW620 cell lines.
(§2) Cytotoxic activity was screened using Resazurin Fluorimetric Assay (R7017, Merck, Darmstadt, Germany), according to the manufacturer’s protocol. Cells seeded into 96-well plates (8 × 10^3 cells/well) were treated for 48 h with phenolic compounds at increasing concentrations from 2 × 10^−5 µM to 100 µM. Negative control with vehicle DMSO was included. Fluorescence was determined using Nanoquant Infinite M200 Pro multi-plate reader (Tecan). Half-maximal inhibitory concentration (IC50) values were determined in triplicate by non-linear regression with Graphpad (Prism).
(§3) Natural products such as phenolic compounds have recently attracted significant attention for their anticancer properties. […] We used three different cell lines to mimic CRC progression. In particular, CRL1790 are colon epithelial cells simulating the non-tumoral stage. In addition, SW480 is Dukes’ type B colorectal adenocarcinoma cells representing the primary tumor. Finally, SW620 constitutes Dukes’ type C colorectal adenocarcinoma derived from metastasic site cells to mimic the most aggressive metastasic stage. […] Cytotoxic potency upon 48 h treatment with phenolic compounds was examined by determination of half-maximal inhibitory concentration (IC50) values using the Resazurin method (Table 1). Only GA inhibited cell growth in SW480 and SW620 at clinically-relevant concentrations (IC50 values lower than 30 µM).

[2] = system: SW480 cells; assay: Resazurin cytotoxic assay, tumoral SW480; type: cell-based, human; settings: Homo sapiens, SW480, 48 h, SW480 primary tumor cells, mean ± SD
Method: as §1, §2, §3

[3] = system: CRL1790 cells; assay: Resazurin cytotoxic assay, non-tumoral CRL1790; type: cell-based; settings: Homo sapiens, Epithelial cell, CRL1790 non-tumoral colon epithelial cells, 48 h, mean ± SD
Method: as §1, §2, §3

[4] = system: γH2AX in SW480 cells; assay: Western blot of γH2AX (DNA damage); type: cell-based, human; settings: SW480, CX5461 10 µM for 6 h
Excerpt: Protein extract from different experimental conditions was extracted using RIPA lysis buffer containing 1% PMSF (P7626, Merck, Darmstadt, Germany), 1% protease inhibitor cocktail (PIC) (P8340, Merck, Darmstadt, Germany), and 1% sodium orthovanadate (S6508, Merck, Darmstadt, Germany). Quantification of protein levels was achieved by Bradford method following manufacturer’s protocol (500-0006, BioRad, Hercules, CA, USA). Protein content was loaded on 12% SDS-polyacrylamide gel (1610148, BioRad, Hercules, CA, USA) for electrophoresis and wet transferred to nitrocellulose membranes (66485, Pall corporation, New York, NY, USA). Membranes were blocked with 5% semi-skimmed milk and incubated overnight at 4 °C with antibodies for γH2AX and actin as housekeeping. Then, membranes were incubated with horseradish peroxidase-labeled antibodies for 1 h at RT. After luminal solution (1705060, BioRad, Hercules, CA, USA) incubation, chemiluminiscence signals were measured using Image Quant LAS 4000 (GE Healthcare Life Sciences). […] Protein levels were quantified by ImageJ.
Then, we investigated DNA damage response because the induction of double-strand breaks is a well-known G4s stabilization associated effect [20]. To this end, we measured the phosphorylation of histone H2AX on Ser-139 (γH2AX), a DNA damage marker, by Western Blot.

[5] = system: G4 structures in SW480 cells; assay: BG4 immunofluorescence (G4 stabilization in cells); type: cell-based, human; settings: SW480, CX5461 10 µM for 6 h, positive control
Method: Cells were seeded on 13 mm circular coverslips and placed in 24-well plates. After exposure to different experimental conditions, fixation was performed with 4% (v/v) paraformaldehyde (P6148, Merck, Darmstadt, Germany) for 10 min at room temperature (RT), permeabilization with 0.1% (v/v) Triton-X100 (T8787, Merck, Darmstadt, Germany) for 10 min and blocking with 10% bovine serum albumin (A7906, Merck, Darmstadt, Germany) containing 0.5% (v/v) Triton-X100 for 30 min at RT. Primary antibodies were incubated for 1 h at RT and secondary antibodies for 30 min at 4 °C in darkness. Finally, all coverslips were mounted onto slides (J2800AMNZ, Thermo scientific, Waltham, MA, USA), including DAPI (4′,6-diamidino-2-phenylindole) for nuclear counterstain. Images were acquired on a Confocal Zeiss LSM 710 inverted microscope with a 63× immersion objective. In a different manner, BG4 immunofluorescence was conducted as previously described [11]. BG4 mean nuclear fluorescence intensity was quantified using Fiji software (N > 250).

[6] = system: G4-enriched genes (5′ETS, BCL2, CMYB, CMYC, KRAS, VEGFA) in SW480 cells; assay: qRT-PCR of G4-enriched genes; type: cell-based, human; settings: SW480, CX5461 10 µM for 6 h
Method: Total cellular RNA was isolated from different experimental group cells using Trizol Reagent (15596, Invitrogen, Waltham, MA, USA). Reverse transcription was conducted using RevertAid First Strand cDNA Synthesis Kit (K1622, Thermo Scientific, MA, USA) according to manufacturer’s protocol with random primers. Quantitative PCR was performed with SYBR Green (4309155, Thermo Scientific, MA, USA) on 7900HT Fast Real-time PCR System (Applied Biosystems). Target mRNA levels were normalized to actin (ΔCt), and fold change was determined using the 2^−ΔΔCt method. Experiments were conducted in triplicate.
In this context, we aimed to analyze whether GA affects the transcription of G4-enriched genes by qRT-PCR. In the case of ribosomal DNA, we measured the short-lived 5′ external transcribed spacer (5′ETS) of the pre-RNA, whichreflects the ribosomal RNA synthesis rate [19].

Compound | IC50 [1] [µM] | IC50 [2] [µM] | IC50 [3] [µM] | DNA damage (γH2AX protein levels) [4] | nuclear BG4 signal [5] | transcription of G4-enriched genes [6]
OC[C@H]1O[C@@H](Oc2cc(O)cc(/C=C/c3ccc(O)cc3)c2)[C@H](O)[C@@H](O)[C@@H]1O [Piceid, piceid] | > 100 | > 100 | > 100 | – | – | –
Oc1ccc(/C=C/c2cc(O)cc(O)c2)cc1 [Resveratrol, resveratrol] | > 100 | > 100 | > 100 | – | – | –
Cc1cnc(CNC(=O)c2c(=O)c3ccc(N4CCCN(C)CC4)nc3n3c2sc2ccccc23)cn1 [CX5461] | – | – | – | significantly induced DNA damage | A similar effect was observed | influenced the expression levels of some of these genes
OCCc1ccc(O)cc1 [Tyrosol, tyrosol] | > 100 | > 100 | > 100 | – | – | –
OCCc1ccc(O)c(O)c1 [Hydroxytyrosol, hydroxytyrosol] | 71.9 ± 3.52 | > 100 | > 100 | – | – | –
